Laboratory results published in patent US20240368104A1, “Novel Dialkoxynaphtho[2,3-C]Furan-1(3H)-One Derivatives and Pharmaceutical Composition For Preventing or Treating Respiratory Disease or SARS-COV-2 Infection Disease, Comprising Same” (priority 2021, published 2024).
pIC50: −log10 of the molar value. Where two headings read alike, the source gives them in different places.

How the values were obtained:
in vitro = conditions: African green monkey
SARS-COV-2 = experiment: microbe, parasite or virus in culture; type: cell-based; set-up: SI (Selectivity Index, CC50/IC50): unit not given here; conditions: for SI (Selectivity Index, CC50/IC50): SARS-COV-2, values >50 assumed to be 50; for pIC50: read-out: SARS-COV-2 inhibition (IC50)
[1] = Severe acute respiratory syndrome coronavirus 2, Vero cells, 24 hours infection

Row | Structure (SMILES) | CC50 (in vitro) | SI (Selectivity Index, CC50/IC50) (SARS-COV-2) | pIC50 (SARS-COV-2; [1]) | pIC50 (SARS-COV-2; Severe acute respiratory syndrome coronavirus 2, Vero, 24 h)
1 | CC[C@@H]1CCCCN1c1ncc(-c2c3c(cc4cc(OC)c(OC)cc24)COC3=O)cn1 [Example 113, (R)-9-(2-(2-ethylpiperidin-1-yl)pyrimidin-5-yl)-6,7-dimethoxynaphtho[2,3-c]furan-1(3H)-one] | > 50 µM | 50.52 | 6.00 | 
2 | COc1cc2cc3c(c(-c4cnc(N5CC(C)(C)OC(C)(C)C5)nc4)c2cc1OC)C(=O)OC3 [Example 114, 6,7-dimethoxy-9-(2-(2,2,6,6-tetramethylmorpholino)pyrimidin-5-yl)naphtho[2,3-c]furan-1(3H)-one] | > 50 µM | 1.0 | < 4.30 | 
3 | COc1cc2cc3c(c(-c4cnc(N(C)C5CCOCC5)nc4)c2cc1OC)C(=O)OC3 [Example 115, 6,7-dimethoxy-9-(2-(methyl(tetrahydro-2H-pyran-4-yl)amino)pyrimidin-5-yl)naphtho[2,3-c]furan-1(3H)-one] | > 50 µM | 48.62 | 5.99 | 
4 | COc1cc2cc3c(c(-c4ccc5nc(C)ccc5c4)c2cc1OC)C(=O)OC3 [Example 116, 6,7-dimethoxy-9-(2-methylquinolin-6-yl)naphtho[2,3-c]furan-1(3H)-one] | > 50 µM | 43.72 | 5.94 | 
5 | COc1cc2cc3c(c(-c4ccc5nccc(O)c5c4)c2cc1OC)C(=O)OC3 [Example 117, 9-(4-hydroxyquinolin-6-yl)-6,7-dimethoxynaphtho[2,3-c]furan-1(3H)-one] | > 50 µM | 1.0 | < 4.30 | 
6 | COc1cc2cc3c(c(-c4ccc5cccnc5c4)c2cc1OC)C(=O)OC3 [Example 118, 6,7-dimethoxy-9-(quinolin-7-yl)naphtho[2,3-c]furan-1(3H)-one] | > 50 µM | 257.92 | 6.72 | 
7 | COc1cc2cc3c(c(-c4ccc(C(F)(F)F)c5cccnc45)c2cc1OC)C(=O)OC3 [Example 119, 6,7-dimethoxy-9-(5-(trifluoromethyl)quinolin-8-yl)naphtho[2,3-c]furan-1(3H)-one] | > 50 µM | 11.45 | 5.36 | 
8 | COc1cc2cc3c(c(-c4ccc5ncc(C)cc5c4)c2cc1OC)C(=O)OC3 [Example 120, 6,7-dimethoxy-9-(3-methylquinolin-6-yl)naphtho[2,3-c]furan-1(3H)-one] | > 50 µM | 12.07 | 5.38 | 
9 | COc1cc2cc3c(c(-c4ccc(N5C[C@@H](C)O[C@@H](C)C5)nc4)c2cc1OC)C(=O)OC3 [Example 121, 9-(6-((2S,6R)-2,6-dimethylmorpholino)pyridin-3-yl)-6,7-dimethoxynaphtho[2,3-c]furan-1(3H)-one] | > 50 µM | 21.51 | 5.63 | 
10 | COc1cc2cc3c(c(-c4ccc(N5CCC(F)(F)CC5)nc4)c2cc1OC)C(=O)OC3 [Example 122, 9-(6-(4,4-difluoropiperidin-1-yl)pyridin-3-yl)-6,7-dimethoxynaphtho[2,3-c]furan-1(3H)-one] | > 50 µM | 512.00 | 6.77 | 
11 | COc1cc2cc3c(c(-c4ccc(N5CCCCC5)nc4)c2cc1OC)C(=O)OC3 [Example 123, 6,7-dimethoxy-9-(6-(piperidin-1-yl)pyridin-3-yl)naphtho[2,3-c]furan-1(3H)-one] | > 50 µM | 145.26 | 6.47 | 
12 | COc1cc2cc3c(c(-c4ccc(N5CCOCC5)nc4)c2cc1OC)C(=O)OC3 [Example 124, 6,7-dimethoxy-9-(6-morpholinopyridin-3-yl)naphtho[2,3-c]furan-1(3H)-one] | > 50 µM | 176.18 | 6.55 | 
13 | COc1cc2cc3c(c(-c4cccc5cccnc45)c2cc1OC)C(=O)OC3 [Example 125, 6,7-dimethoxy-9-(quinolin-8-yl)naphtho[2,3-c]furan-1(3H)-one] | > 50 µM | 1.0 | < 4.30 | 
14 | COc1cc2cc3c(c(-c4ccc(N5CCCC(C)C5)nc4)c2cc1OC)C(=O)OC3 (stereo not drawn) [Example 126, 6,7-dimethoxy-9-(6-(3-methylpiperidin-1-yl)pyridin-3-yl)naphtho[2,3-c]furan-1(3H)-one] | > 50 µM | 122.97 | 6.39 | 
15 | COc1cc2cc3c(c(-c4ccc(N5CC(C)CC(C)C5)nc4)c2cc1OC)C(=O)OC3 (stereo not drawn) [Example 127, 9-(6-(3,5-dimethylpiperidin-1-yl)pyridin-3-yl)-6,7-dimethoxynaphtho[2,3-c]furan-1(3H)-one] | > 50 µM | 45.29 | 5.96 | 
16 | COc1cc2cc3c(c(N4CCNCC4)c2cc1OC)C(=O)OC3 [Example 128, 6,7-dimethoxy-9-(piperazin-1-yl)naphtho[2,3-c]furan-1(3H)-one] | > 50 µM | 1.78 |  | 4.55

Row | Structure (SMILES) | CC50 (in vitro) | SI (Selectivity Index, CC50/IC50) (SARS-COV-2) | pIC50 (SARS-COV-2; [1]) | pIC50 (SARS-COV-2; Severe acute respiratory syndrome coronavirus 2, Vero, 24 h)
17 | COc1cc2cc3c(c(N4CCN(c5ccc(Br)cn5)CC4)c2cc1OC)C(=O)OC3 [Example 129, 9-(4-(5-bromopyridin-2-yl)piperazin-1-yl)-6,7-dimethoxynaphtho[2,3-c]furan-1(3H)-one] | > 50 µM | 2.29 | 4.66 | 
18 | COc1cc2cc3c(c(N4CCN(c5cc(Cl)nc(SC)n5)CC4)c2cc1OC)C(=O)OC3 [Example 130, 9-(4-(6-chloro-2-(methylthio)pyrimidin-4-yl)pilerazin-1-yl)-6,7-dimethoxynaphtho[2,3-c]furan-1(3H)-one] | > 50 µM | 1.0 | < 4.30 | 
19 | COc1cc2cc3c(c(N4CCN(c5ncc(Br)cn5)CC4)c2cc1OC)C(=O)OC3 [Example 131, 9-(4-(5-bromopyrimidin-2-yl)piperazin-1-yl)-6,7-dimethoxynaphtho[2,3-c]furan-1(3H)-one] | > 50 µM | 1.44 | 4.46 | 
20 | COc1cc2cc3c(c(-c4cccc5ncccc45)c2cc1OC)C(=O)OC3 [Example 132, 6,7-dimethoxy-9-(quinolin-5-yl)naphtho[2,3-c]furan-1(3H)-one] | > 50 µM | 1.0 | < 4.30 | 
21 | COc1cc2cccc(-c3c4c(cc5cc(OC)c(OC)cc35)COC4=O)c2cn1 [Example 133, 6,7-dimethoxy-9-(3-methoxyisoquinolin-8-yl)naphtho[2,3-c]furan-1(3H)-one] | > 50 µM | 1.0 | < 4.30 | 
22 | COc1cc2cc3c(c(-c4cc(C)nc5c(F)cccc45)c2cc1OC)C(=O)OC3 [Example 134, 9-(8-fluoro-2-methylquinolin-4-yl)-6,7-dimethoxynaphtho[2,3-c]furan-1(3H)-one] | > 50 µM | 1.0 | < 4.30 | 
23 | COc1cc2cc3c(c(-c4ccc5nccc(N6CCNCC6)c5c4)c2cc1OC)C(=O)OC3 [Example 135, 6,7-dimethoxy-9-(4-(piperazin-1-yl)quinolin-6-yl)naphtho[2,3-c]furan-1(3H)-one] | > 50 µM | 2.90 | 4.76 | 
24 | COc1cc2cc3c(c(-c4cc(C)nc5c(C(F)(F)F)cccc45)c2cc1OC)C(=O)OC3 [Example 136, 6,7-dimethoxy-9-(2-methyl-8-(trifluoromethyl)quinolin-4-yl)naphtho[2,3-c]furan-1(3H)-one] | > 50 µM | 1.0 | < 4.30 | 
25 | COc1cc2cc3c(c(-c4ccnc5c(F)cccc45)c2cc1OC)C(=O)OC3 [Example 137, 9-(8-fluoroquinolin-4-yl)-6,7-dimethoxynaphtho[2,3-c]furan-1(3H)-one] | > 50 µM | 1.0 | < 4.30 | 
26 | COc1cc2cc3c(c(-c4ccc5nccc(Cl)c5c4)c2cc1OC)C(=O)OC3 [Example 138, 9-(4-chloroquinolin-6-yl)-6,7-dimethoxynaphtho[2,3-c]furan-1(3H)-one] | > 50 µM | 1.33 | 4.42 | 
27 | COc1cc2cc3c(c(-c4cc(C)nc5c(F)cc(F)cc45)c2cc1OC)C(=O)OC3 [Example 139, 9-(6,8-difluoro-2-methylquinolin-4-yl)-6,7-dimethoxynaphtho[2,3-c]furan-1(3H)-one] | > 50 µM | 1.0 | < 4.30 | 
28 | COc1cc2cc3c(c(-c4ccnc5c(OC)cccc45)c2cc1OC)C(=O)OC3 [Example 140, 6,7-dimethoxy-9-(8-methoxyquinolin-4-yl)naphtho[2,3-c]furan-1(3H)-one] | > 50 µM | 1.0 | < 4.30 | 
29 | COc1ccc2c(-c3c4c(cc5cc(OC)c(OC)cc35)COC4=O)cc(C)nc2c1 [Example 141, 6,7-dimethoxy-9-(7-methoxy-2-methylquinolin-4-yl)naphtho[2,3-c]furan-1(3H)-one] | > 50 µM | 2.07 | 4.62 | 
30 | COc1cc2cc3c(c(-c4ccc(N5CCC(Cl)CC5)nc4)c2cc1OC)C(=O)OC3 [Example 142, 9-(6-(4-chloropiperidin-1-yl)pyridin-3-yl)-6,7-dimethoxynaphtho[2,3-c]furan-1(3H)-one] | > 50 µM | 25.00 | 5.70 | 
31 | COc1cc2cc3c(c(N4CCN(CCN5CCOCC5)CC4)c2cc1OC)C(=O)OC3 [Example 143, 6,7-dimethoxy-9-(4-(2-morpholinoethyl)piperazin-1-yl)naphtho[2,3-c]furan-1(3H)-one] | > 50 µM | 1.0 | < 4.30 | 
32 | COc1cc2cc3c(c(N4CCN(CCO)CC4)c2cc1OC)C(=O)OC3 [Example 144, 9-(4-(2-hydroxyethyl)piperazin-1-yl)-6,7-dimethoxynaphtho[2,3-c]furan-1(3H)-one] | > 50 µM | 1.0 | < 4.30 | 
